Experimental data from the NIST ThermoML archive (doi:10.1016/j.tca.2010.05.016).
Numbers after ± are expanded uncertainties.

Assay: wn = mass fraction of the nth substance listed
Settings: 101 kPa, Liquid; for speed of sound: Vibrating Tube; for mass density: Vibrating tube method

O=C[C@H](O)[C@@H](O)[C@H](O)[C@H](O)CO [D-glucose] + O
Settings	mass density, 288.15 K [kg/m3]	mass density, 293.15 K [kg/m3]	mass density, 298.15 K [kg/m3]	mass density, 303.15 K [kg/m3]	mass density, 308.15 K [kg/m3]	speed of sound, 288.15 K [m/s]	speed of sound, 293.15 K [m/s]	speed of sound, 298.15 K [m/s]	speed of sound, 303.15 K [m/s]	speed of sound, 308.15 K [m/s]
w1 = 0.0206	–	1006.08 ± 0.047	1004.86 ± 0.047	1003.41 ± 0.046	1001.75 ± 0.045	1475.6 ± 3.3	–	–	1517.3 ± 3.3	1527 ± 3.3
w1 = 0.0396	1014.53 ± 0.061	1013.52 ± 0.06	1012.25 ± 0.06	1010.76 ± 0.059	–	1482.2 ± 3.3	1497.7 ± 3.3	1511.3 ± 3.3	1523 ± 3.3	1533 ± 3.3
w1 = 0.0591	1022.21 ± 0.079	1021.13 ± 0.079	1019.81 ± 0.078	1018.27 ± 0.077	1016.54 ± 0.076	1490 ± 3.3	1505.1 ± 3.3	1518.4 ± 3.3	1529.9 ± 3.3	1539.5 ± 3.3
